Source: patent US7862798B2, “Vitamin-targeted imaging agents” (Endocyte, Inc., priority 2002, dated 2011)
“And” between values parts separate entries of the source, which are not always exact repeats. Equal values may be shown once. “Also recorded” adds a separate entry of the source.

What was measured:
[1] = Serum protein binding (ultrafiltration), human serum; format: in vitro ADME; conditions: room temperature, ultrafiltration 30,000 NMWL
Experimental: Fresh rat serum, and commercial male human serum (type AB donors, Sigma Chemical Co.) were used to evaluate in vitro binding of ^99mTc˜EC20 to serum proteins. One minute after ^99mTc-EC20 was mixed with 1 mL of serum at room temperature, 0.3 mL of the serum solution was transferred to a clean Amicon Centrifree® ultrafiltration device (30,000 NMWL) in triplicate. Within one minute of loading the centrifuge with the serum solution, the device was spun at 1000×g for 20 minutes at 20° C. 50 μL samples of the original solution, and of the filtrate from each device, was transferred to a clean tube and counted in an automatic gamma counter. A control solution of ^99mTc˜EC20 mixed with 1 mL of normal saline was ultrafiltered in an identical fashion. The percentage of free ^99mTc was calculated for each of the three samples.

[2] = tested on: FR-positive M109 tumors; experiment: Tissue distribution, subcutaneous M109 tumors (Example 11)
Experimental: The ability of ^99mTc-EC20 to target tumors in vivo was assessed using a FR-positive M109 model.
Four to five week-old mice (Balb/c strain) were purchased from Harlan Sprague Dawley, Inc. (Indianapolis, Ind.) and were maintained on a folate-free diet for a total of three weeks prior to the experiment. Syngeneic, FR-positive M109 tumor cells (1×10^6 per animal) were inoculated in the subcutis of the right axilla two weeks prior to the experiment.
Animals received an approximate 40 μmol/kg i.v. dose of test article in 100 μL volume via a lateral tail vein during brief diethyl ether anesthesia. Four hours post-injection, animals were sacrificed by CO2 asphyxiation, and dissected. Selected tissues were removed, weighed, and counted to determine ^99mTc distribution. CPM values were decay-corrected, and results were tabulated as % injected dose per gram of wet weight tissue.

[3] = Urinary excretion and metabolism (HPLC speciation of urine); format: in vivo, Balb/c mice
Experimental: (§1) The urinary HPLC speciation profile of ^99mTc-EC20 was obtained using Balb/c mice. Mice (˜20 g each) were injected with 1 mCi (6.7 nmol) of ^99mTc-EC20 via a lateral tail vein. Following a 1, 4, or 6 hour time period, groups of two mice were euthanized by CO2 asphyxiation and urine was collected. After filtration through a GV13 Millex filter, the radiochemical speciation was assessed using an HPLC system equipped with a Nova-Pak C18 3.9×150 mm column and a radiochemical detector. The system was isocratically eluted with 20% methanol containing 0.1% TFA at a flow rate of 1 mL/minute.

[4] = tested on: FR-positive KB cells; experiment: Time-dependent cell uptake; format: cell-based, human; design: time to half-maximal saturation point: dose or concentration left out as unconfirmed
Experimental: KB cells were seeded in 12-well Falcon plates and allowed to form sub-confluent monolayers overnight. Following one rinse with 1 mL of fresh FFRPMI/HIFCS, each well received 1 mL of FFRPMI/HIFCS containing 10 nM ^99mTc-EC20. Cells were incubated for predetermined times at 37° C. and then rinsed four times with 1 mL of ice-cold PBS, pH 7.4. The cell monolayers were dissolved in 0.5 mL of PBS, pH 7.4 containing 1% sodium dodecyl sulfate for 15 min at room temperature and then counted for radioactivity using a Packard gamma counter. The protein in each sample was quantitated using a BioRad DC Protein Assay kit, and cellular protein values were converted to cell number using the conversion factor of 2.23×10^−7 mg protein per cell. Final tabulated values were expressed in terms of molecules of EC20 per cell.
The kinetics of ^99mTc-EC20 uptake into FR-positive KB cells was quantitatively measured using this protocol.

[5] = tested on: FR-positive M109 tumors; experiment: Gamma scintigraphy; format: in vivo, Balb/c mice; conditions: 4 hr after i.v. administration, M109 tumor-bearing Balb/c mouse
Experimental: Whole body image acquisition was performed for 1 minute at a count rate of 50-75,000 counts per minute using a Technicare Omega 500 Sigma 410 Radioisotope Gamma Camera. All data were analyzed using a Medasys MS-DOS-based computer equipped with Medasys Pinnacle software.

[6] = HPLC speciation of the 99mTc-EC20 standard in saline over 6 hr; format: physicochemical; conditions: for Area Percent, Sum C and D / Area Percent, peak A (pertechnetate) / Area Percent, peak B (unknown) / Area Percent, peak C (isomer 1) / Area Percent, peak D (isomer 2): 99mTc-EC20 Standard
Experimental: as §1
It was previously determined that the primary elimination route for ^111In-DTPA-Folate was via the urine. […] As shown in Table 4 (below), the radiochemical purity of the standard (sum of peaks C and D presumably corresponding to the syn and anti ^99mTc-EC20) remained constant at ˜93% over the 6 hr duration of this experiment. The amount of free ^99mTc in the standard (peak A) was ˜2%.

[7] = 4 hr post i.v., + Folic acid (100 equivalents)
[8] = 4 hr post intravenous injection

## [NH-][C@@H](CNC(=O)CC[C@@H](NC(=O)c1ccc(NCc2cnc3nc(N)[nH]c(=O)c3n2)cc1)C(=O)O)C(=O)[N-][C@@H](CC(=O)O)C(=O)[N-][C@@H](C[S-])C(=O)O.[O]=[Tc+4] [^99mTc-EC20]
[1]
  associated with the >30 kDa serum protein fraction: 72%
[2]; [7]
  Blood: 0.09 ± 0.02 % Injected Dose per Gram Tissue
  Heart: 0.08 ± 0.01 % Injected Dose per Gram Tissue
  Intestine: 2.93 ± 1.49 % Injected Dose per Gram Tissue
  Kidney: 5.64 ± 2.13 % Injected Dose per Gram Tissue
  Liver: 1.15 ± 0.22 % Injected Dose per Gram Tissue
  Lung: 0.31 ± 0.26 % Injected Dose per Gram Tissue
  Muscle: 0.06 ± 0.02 % Injected Dose per Gram Tissue
  Spleen: 0.38 ± 0.33 % Injected Dose per Gram Tissue
  Stomach: 3.35 ± 5.19 % Injected Dose per Gram Tissue
  Tumor: 0.45 ± 0.18 % Injected Dose per Gram Tissue
  Tumor/Blood: 4.70 ± 1.30
[2]; [8]
  Blood: 0.34 ± 0.03 % Injected Dose per Gram Tissue
  Heart: 1.57 ± 0.26 % Injected Dose per Gram Tissue
  Intestine: 2.56 ± 0.61 % Injected Dose per Gram Tissue
  Kidney: 138 ± 12.4 % Injected Dose per Gram Tissue
  Liver: 3.56 ± 0.25 % Injected Dose per Gram Tissue
  Lung: 2.22 ± 0.63 % Injected Dose per Gram Tissue
  Muscle: 0.67 ± 0.20 % Injected Dose per Gram Tissue
  Spleen: 0.95 ± 0.15 % Injected Dose per Gram Tissue
  Stomach: 1.45 ± 0.55 % Injected Dose per Gram Tissue
[3]; Balb/c mice, i.v.
  form excreted into the urine: predominately excreted into the urine in an unmodified form
[3]; throughout four hours post-injection
  proportion of parent drug among radioactive species recovered in urine: approximately 90%
[3]; urine samples, 1 hr, two mice
  Area Percent, Sum C and D (intact 99mTc-EC20): 89.2 Area Percent and 91.1 Area Percent
  Area Percent, peak A (pertechnetate): 8.3 Area Percent and 6.3 Area Percent
  Area Percent, peak B (unknown): 2.5 Area Percent and 2.6 Area Percent
  Area Percent, peak C (isomer 1): 20.4 Area Percent and 18.1 Area Percent
  Area Percent, peak D (isomer 2): 68.8 Area Percent and 73 Area Percent
[3]; urine samples, 4 hr, two mice
  Area Percent, Sum C and D (intact 99mTc-EC20): 85.2 Area Percent and 89.8 Area Percent
  Area Percent, peak A (pertechnetate): 9.4 Area Percent and 10.2 Area Percent
  Area Percent, peak C (isomer 1): 7.3 Area Percent and 11.1 Area Percent
  Area Percent, peak D (isomer 2): 77.9 Area Percent and 78.7 Area Percent
[4]; 10 nM, 37° C.
  time to half-maximal cell association: 9 min
[4]; 10 nM, 37° C., KB cells
  molecules of EC20 cell-associated at steady state: approximately 3.2 million
  time to steady-state uptake: within two hours
[4]; 10-fold higher concentration
  time to half-maximal saturation point: 37 s
[5]
  whole-body gamma image, localization of radiotracer: localizes the gamma radiation to the two kidneys (K) and the M109 tumor mass; also recorded: Only the kidneys (K) and tumor (T) exhibit significant accumulation
[6]; 0 hr
  Area Percent, Sum C and D: 93.5 Area Percent
  Area Percent, peak A (pertechnetate): 2 Area Percent
  Area Percent, peak B (unknown): 4.5 Area Percent
  Area Percent, peak C (isomer 1): 15.5 Area Percent
  Area Percent, peak D (isomer 2): 78 Area Percent
[6]; 1 hr
  Area Percent, Sum C and D: 93.4 Area Percent
  Area Percent, peak A (pertechnetate): 2.1 Area Percent
  Area Percent, peak B (unknown): 4.5 Area Percent
  Area Percent, peak C (isomer 1): 15.7 Area Percent
  Area Percent, peak D (isomer 2): 77.7 Area Percent
[6]; 6 hr
  Area Percent, Sum C and D: 93.4 Area Percent
  Area Percent, peak A (pertechnetate): 1.8 Area Percent
  Area Percent, peak B (unknown): 4.8 Area Percent
  Area Percent, peak C (isomer 1): 15.9 Area Percent
  Area Percent, peak D (isomer 2): 77.5 Area Percent
[6]; constant over the 6 hr duration, saline solution
  radiochemical purity of the standard (sum of peaks C and D): ~93%
[6]; saline solution
  free 99mTc in the standard (peak A): ~2%
